Source: patent US20260166159A1, “KRAS G12D DEGRADATION AGENT, AND PREPARATION METHOD AND USE THEREFOR” (LEADINGTAC PHARMACEUTICAL (SHAOXING) CO., LTD., priority 2022, published 2026)

What was measured:
KRAS-G12D = biological target: T1, KRAS-G12D (Homo sapiens, UniProt P01116, G12D); test: KRAS-G12D degradation assay (Western Blot), A-427 cells; assay type: cell-based; settings: A427 cells, 24 h, class symbols; for Dmax: A-427
T1 construct: endogenous in cells; host or cells: A-427 (ATCC), AGS, AsPc-1, Panc 04.03
T1 sequence (P01116 1-188 isoform P01116-2 G12D): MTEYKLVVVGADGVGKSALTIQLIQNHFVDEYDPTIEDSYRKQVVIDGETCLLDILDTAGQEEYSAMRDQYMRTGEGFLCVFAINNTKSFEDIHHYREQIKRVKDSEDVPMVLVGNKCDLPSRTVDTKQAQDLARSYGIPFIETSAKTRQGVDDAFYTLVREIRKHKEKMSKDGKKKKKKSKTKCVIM
Procedure, shortened: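 Western blotting of lysates (5 μg protein) quantified KRAS against a β-actin reference after 24 h exposure to compound at final 0.03–3000 nM in 0.25% DMSO. Cells were A-427, AGS, AsPc-1 or Panc 04.03, all KRAS G12D, at 5×10^5/well. Degradation versus control yielded DC50 and Dmax.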

[1] = biological target: T2, Human KRAS G12D 6His-tagged (Homo sapiens, UniProt P01116, G12D); test: KRAS-G12D/GTP binding assay (HTRF)
T2 construct: purchased PerkinElmer
T2 sequence (P01116 1-188 isoform P01116-2 G12D): as above
Description: In this method, the inhibitory effects of the compounds on the binding of KRAS-G12D to GTP were assayed by a homogeneous time-resolved fluorescence (HTRF) technique using a KRAS-G12D/GTP binding assay kit (PerkinElmer).
The experimental procedures were as follows (refer to the kit instructions for detailed test methods): the compounds of the present disclosure were each firstly dissolved in DMSO at a concentration of 20 mM, and then diluted in an equal gradient with a buffer in the kit, so that the final concentrations of the test compounds in the reaction system were in a range of 0.02-5000 nM, and the final concentration of DMSO was 0.5%. 5 μL of each compound was incubated with 5 μL of 1× Human KRAS G12D 6His-tagged (PerkinElmer), 5 μL of 1×6His Eu Cryptate Antibody (PerkinElmer), and 5 μL of 1×GTP Red reagent (PerkinElmer) in a 384-well plate (Greiner) at 25° C. for 1 h. After the incubation was completed, the fluorescence intensity of each well was measured at the excitation wavelength of 337 nm and the emission wavelengths of 620 nm and 665 nm with an EnVision microplate reader (PerkinElmer) in the HTRF mode, and Ratio values were calculated using the formula: Ratio=(665 nm/620 nm)×[…]. The inhibition rates of the compounds at each concentration were calculated by comparing the fluorescence intensity ratio with that of the control group. Then non-linear curve fittings for logarithmic concentration-inhibition rate were performed using the GraphPad Prism 8 analysis software, and the IC50 values of the compounds were obtained (Table 2).

[2] = test system: KRAS G12D mutant human gastric cancer cell AGS; test: 3D cell proliferation inhibition assay, AGS; assay type: cell-based; settings: 168 h, 7 days, CTG, class symbols
Procedure, shortened: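 For this 7-day anchorage-independent assay, 5×10^2 cells per well were exposed to 10000–0.026 nM test compound with 0.2% DMSO at 37 °C. ATP-based luminescence (CTG) gave viability, and percent inhibition versus DMSO controls was curve-fitted to obtain IC50.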

[3] = test system: KRAS G12D mutant human lung cancer cell A427; test: 3D cell proliferation inhibition assay, A427; assay type: cell-based; settings: A-427, 168 h, A427, 7 days, CTG, class symbols
From the text: The inhibitory effects of the compounds on 3D cell proliferation were investigated on KRAS G12D mutant human lung cancer cell A427, KRAS G12D mutant human gastric cancer cell AGS, KRAS G12D mutant human metastatic pancreatic cancer cell AsPc-1, KRAS G12D mutant human pancreatic cancer cell Panc 04.03, KRAS G12D mutant human pancreatic cancer cell HPAC, KRAS G12V mutant human lung squamous cell carcinoma cell SW900, and KRAS WT human gastric cancer cell MKN1. The specific procedures were as follows:
10 μL of each compound solution diluted in a gradient was added to corresponding wells of a 96-well low-adsorption microplate (PerkinElmer), so that the final concentrations of the test compounds in the reaction system were in a range of 10000-0.026 nM. The final concentration of DMSO was 0.2%. Then 90 µL of cells were correspondingly seeded into each well to achieve a cell density of 5×10^2 cells/well (the cell density of SW900 was 5×10^1 cells/well, and the cell density of MKN1 was 1×10^3 cells/well). In addition to test wells for the test compounds, both a DMSO control well and a medium control well were set, with the DMSO control well containing DMSO and cells and the medium well containing only a medium. After the sample loading, the 96-well low-adsorption microplate was incubated in an incubator at 37° C. with 5% carbon dioxide for 7 days. After 7 days, the microplate was taken out, and 100 μL of CTG reagent (Promega) was added to each well. The plate was incubated at room temperature for 60 min and read on a microplate reader EnVision by the chemiluminescence program. The inhibition rates of the compounds at each concentration were calculated using the formula for the percentage inhibition of cell proliferation: inhibition rate %=(mean value of DMSO control group−single concentration reading value of compound)/(mean value of DMSO control group−mean value of medium control group)×100. Then non-linear curve fittings for logarithmic concentration-inhibition rate were performed by GraphPad Prism 8, and the IC50 values of the compounds were obtained (Table 5).

| SMILES | DC50 (KRAS-G12D) [nM] | Dmax (KRAS-G12D) [%] | IC50 ([1]; class symbols) [nM] | IC50 ([1]; numeric values) [nM] | IC50 [2] [nM] | IC50 [3] [nM] |
| --- | --- | --- | --- | --- | --- | --- |
| C#Cc1c(F)ccc2cc(O)cc(-c3ncc4c(N5CC6CCC(C5)N6)nc(OC[C@@H]5CCCN5CC5CCC6(CC5)CCN(C(=O)c5ccc(Cl)c(N7CCC(=O)NC7=O)c5)CC6)nc4c3F)c12 [Example 12, 1-(5-(9-(((S)-2-(((4-(3,8-diazabicyclo[3.2.1]octan-3-yl)-7-(8-ethynyl-7-fluoro-3-hydroxynaphthalen-1-yl)-8-fluoropyrido[4,3-d]pyrimidin-2-yl)oxy)methyl)pyrrolidin-1-yl)methyl)-3-azaspiro[5.5]undecane-3-carbonyl)-2-chlorophenyl)dihydropyrimidine-2,4(1H,3H)-dione] | 1000 to 10000 | 50 to 80 | 100 to 500 |  |  |  |
| CCc1cccc2cc(O)cc(-c3ncc4c(N5CC6CCC(C5)N6)nc(OC[C@@H]5CCCN5CCC5CCN(CCC(=O)N[C@H](C(=O)N6C[C@H](O)C[C@H]6C(=O)NCc6ccc(-c7scnc7C)cc6)C(C)(C)C)CC5)nc4c3F)c12 [Example 34, (2S,4R)-1-((S)-2-(3-(4-(2-((S)-2-(((4-(3,8-diazabicyclo[3.2.1]octan-3-yl)-7-(8-ethyl-3-hydroxynaphthalen-1-yl)-8-fluoropyrido[4,3-d]pyrimidin-2-yl)oxy)methyl)pyrrolidin-1-yl)ethyl)piperidin-1-yl)propanamido)-3,3-dimethylbutanoyl)-4-hydroxy-N-(4-(4-methylthiazol-5-yl)benzyl)pyrrolidine-2-carboxamide] | 1000 to 10000 | < 30 | 100 to 500 |  |  |  |
| C#Cc1c(F)ccc2cc(O)cc(-c3ncc4c(N5CC6CCC(C5)N6)nc(OCC5CCN(CCCCC6CCC7(CC6)CCN(C(=O)c6ccc(Cl)c(N8CCC(=O)NC8=O)c6)CC7)CC5)nc4c3F)c12 [Example 52, 1-(5-(9-(4-(4-(((4-(3,8-diazabicyclo[3.2.1]octan-3-yl)-7-(8-ethynyl-7-fluoro-3-hydroxynaphthalen-1-yl)-8-fluoropyrido[4,3-d]pyrimidin-2-yl)oxy)methyl)piperidin-1-yl)butyl)-3-azaspiro[5.5]undecane-3-carbonyl)-2-chlorophenyl)dihydropyrimidine-2,4(1H,3H)-dione] | 100 to 500 | 50 to 80 | 100 to 500 |  |  |  |
| C#Cc1c(F)ccc2cc(O)cc(-c3ncc4c(N5CC6CCC(C5)N6)nc(OC[C@@H]5CCCN5CC5CCN(CCC(=O)N[C@H](C(=O)N6C[C@H](O)C[C@H]6C(=O)NCc6ccc(-c7scnc7C)cc6)C(C)(C)C)CC5)nc4c3F)c12 [Example 35, (2S,4R)-1-((S)-2-(3-(4-(((S)-2-(((4-(3,8-diazabicyclo[3.2.1]octan-3-yl)-7-(8-ethynyl-7-fluoro-3-hydroxynaphthalen-1-yl)-8-fluoropyrido[4,3-d]pyrimidin-2-yl)oxy)methyl)pyrrolidin-1-yl)methyl)piperidin-1-yl)propanamido)-3,3-dimethylbutanoyl)-4-hydroxy-N-(4-(4-methylthiazol-5-yl)benzyl)pyrrolidine-2-carboxamide] | 1000 to 10000 | < 30 | ≤ 50 |  |  |  |
| CCc1cccc2cc(O)cc(-c3ncc4c(N5CC6CCC(C5)N6)nc(OC[C@@H]5CCCN5CCCC5CCN(C(=O)c6ccc(Cl)c(N7CCC(=O)NC7=O)c6)CC5)nc4c3F)c12 [Example 1, 1-(5-(4-(3-((S)-2-(((4-(3,8-diazabicyclo[3.2.1]octan-3-yl)-7-(8-ethyl-3-hydroxynaphthalen-1-yl)-8-fluoropyrido[4,3-d]pyrimidin-2-yl)oxy)methyl)pyrrolidin-1-yl)propyl)piperidine-1-carbonyl)-2-chlorophenyl)dihydropyrimidine-2,4(1H,3H)-dione] | 1000 to 10000 | 30 to 50 | 100 to 500 |  |  |  |
| C#Cc1c(F)ccc2cc(O)cc(-c3ncc4c(N5CC6CCC(C5)N6)nc(OC[C@@H]5CCCN5CCCC5CCN(C(=O)c6ccc(Cl)c(N7CCC(=O)NC7=O)c6)CC5)nc4c3F)c12 [Example 9, 1-(5-(4-(3-((S)-2-(((4-(3,8-diazabicyclo[3.2.1]octan-3-yl)-7-(8-ethynyl-7-fluoro-3-hydroxynaphthalen-1-yl)-8-fluoropyrido[4,3-d]pyrimidin-2-yl)oxy)methyl)pyrrolidin-1-yl)propyl)piperidine-1-carbonyl)-2-chlorophenyl)dihydropyrimidine-2,4(1H,3H)-dione] | 1000 to 10000 | 30 to 50 | 50 to 100 |  |  |  |
| C#Cc1c(F)ccc2cc(O)cc(-c3ncc4c(N5CC6CCC(C5)N6)nc(OCC5(CN6CCC(O)(COCCC7CCN(C(=O)c8ccc(Cl)c(N9CCC(=O)NC9=O)c8)CC7)CC6)CC5)nc4c3F)c12 [Example 63] |  |  |  | 1.15 |  |  |
| C#Cc1c(F)ccc2cc(O)cc(-c3ncc4c(N5CC6CCC(C5)N6)nc(OCC5(CN6CCN(C(=O)c7ccc(Cl)c(N8CCC(=O)NC8=O)c7)CC6)CC5)nc4c3F)c12 [Example 69, 1-(5-(4-((1-(((4-(3,8-diazabicyclo[3.2.1]octan-3-yl)-7-(8-ethynyl-7-fluoro-3-hydroxynaphthalen-1-yl)-8-fluoropyrido[4,3-d]pyrimidin-2-yl)oxy)methyl)cyclopropyl)methyl)piperazine-1-carbonyl)-2-chlorophenyl)dihydropyrimidine-2,4(1H,3H)-dione] |  |  |  | 2.4 |  |  |
| C#Cc1c(F)ccc2cc(O)cc(-c3ncc4c(N5CC6CCC(C5)N6)nc(OCC5(CN6CC7CCC(C6)N7CC6CCC7(CC6)CCN(C(=O)c6ccc(Cl)c(N8CCC(=O)NC8=O)c6)CC7)CC5)nc4c3F)c12 [Example 58, 1-(5-(9-((3-((1-(((4-(3,8-diazabicyclo[3.2.1]octan-3-yl)-7-(8-ethynyl-7-fluoro-3-hydroxynaphthalen-1-yl)-8-fluoropyrido[4,3-d]pyrimidin-2-yl)oxy)methyl)cyclopropyl)methyl)-3,8-diazabicyclo[3.2.1]octan-8-yl)methyl)-3-azaspiro[5.5]undecane-3-carbonyl)-2-chlorophenyl)dihydropyrimidine-2,4(1H,3H)-dione] | ≤ 50 | 80 to 100 | 500 to 1000 |  |  |  |
| CCc1c(F)ccc2cc(O)cc(-c3ncc4c(N5CC6CCC(C5)N6)nc(OCC5(CN6CCN(CC7CCC8(CC7)CCN(C(=O)c7ccc(C)c(N9CCC(=O)NC9=O)c7)CC8)CC6)CC5)nc4c3F)c12 [Example 37, 1-(5-(9-((4-((1-(((4-(3,8-diazabicyclo[3.2.1]octan-3-yl)-7-(8-ethyl-7-fluoro-3-hydroxynaphthalen-1-yl)-8-fluoropyrido[4,3-d]pyrimidin-2-yl)oxy)methyl)cyclopropyl)methyl)piperazin-1-yl)methyl)-3-azaspiro[5.5]undecane-3-carbonyl)-2-methylphenyl)dihydropyrimidine-2,4(1H,3H)-dione] | ≤ 50 | 80 to 100 |  |  | ≤ 50 | 100 to 500 |
